Patent US7556938B1, “Nucleic acids encoding potassium channel interactors” (Millennium Pharmaceuticals, Inc., priority 1998, dated 2009)
pIC50: −log10 of the molar value.

Tests used:
Kv4.2 = molecular target: T1, Kv4.2 (Rattus norvegicus, UniProt Q63881); test: AA modulation of Kv4.2 current (Kv4.2 expressed alone) in CHO cells; format: cell-based; settings: Kv4.2 alone, 10 μM AA
T1 construct: expressed in transfected cells; host or cells: CHO cells, transient transfection with GFP co-transfected
T1 sequence (Q63881 1-630): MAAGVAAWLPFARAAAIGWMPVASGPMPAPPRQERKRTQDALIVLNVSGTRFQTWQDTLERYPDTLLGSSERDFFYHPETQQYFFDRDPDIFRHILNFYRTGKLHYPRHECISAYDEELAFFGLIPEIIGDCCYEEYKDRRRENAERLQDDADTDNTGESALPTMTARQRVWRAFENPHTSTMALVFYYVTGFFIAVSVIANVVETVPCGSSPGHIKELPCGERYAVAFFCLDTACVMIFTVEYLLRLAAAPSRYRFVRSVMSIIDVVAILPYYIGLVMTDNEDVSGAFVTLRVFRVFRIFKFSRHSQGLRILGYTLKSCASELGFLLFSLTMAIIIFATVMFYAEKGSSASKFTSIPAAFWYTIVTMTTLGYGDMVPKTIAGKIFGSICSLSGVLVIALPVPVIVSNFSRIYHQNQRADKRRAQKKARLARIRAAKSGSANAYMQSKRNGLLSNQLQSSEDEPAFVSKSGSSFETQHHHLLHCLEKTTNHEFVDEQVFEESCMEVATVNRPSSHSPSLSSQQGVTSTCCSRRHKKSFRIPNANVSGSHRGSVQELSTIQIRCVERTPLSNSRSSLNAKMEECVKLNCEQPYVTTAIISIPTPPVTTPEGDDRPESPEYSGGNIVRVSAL
Experimental: (§1) HEK 293 and CHO cells were used for recordings 1-3 days after a transient transfection. Whole-cell currents were recorded from cells expressing GFP, identified by their green fluorescence. […] After Gigaseal and ruptured whole-cell configuration access, resistance was less than 10 MOhms. Whole-cell bath solutions were made from a 10× Hank's balanced salt solution (GibcoBRL) with the following final concentration (in mM): 138 NaCl, 5.4 KCl, 1.3 MgCl2, 1.3 CaCl2, 5.5 D-Glukos and 10 HEPES, pH 7.4. The intracellular electrode solution consisted of (in mM) 140 KCl, 10 HEPES, 10 EGTA, 0.5 MgCl2, pH 7.3. All chemicals were from Sigma (St. Louis, Mo.) or Fisher Scientific (Houston, Tex.). Membrane currents were recorded using a EPC9 patch-clamp amplifier (HEKA, Germany). Data were analyzed using Matlab (Natick, Ma), and leak subtracted if necessary. All experiments were done at room temperature. […]

Kv4.2/KChIP1 = molecular target: T2, Kv4.2/KChIP1 (Rattus norvegicus, UniProt Q63881); test: AA modulation of Kv4.2/KChIP1 current in CHO cells; format: cell-based; settings: Kv4.2/KChIP1, 10 μM AA
T2 construct: expressed in transfected cells; host or cells: CHO cells
T2 sequence (Q63881 1-630): T1 sequence (Q63881 1-630)
T2 sequence (Q8R426 1-216 isoform Q8R426-2 partner): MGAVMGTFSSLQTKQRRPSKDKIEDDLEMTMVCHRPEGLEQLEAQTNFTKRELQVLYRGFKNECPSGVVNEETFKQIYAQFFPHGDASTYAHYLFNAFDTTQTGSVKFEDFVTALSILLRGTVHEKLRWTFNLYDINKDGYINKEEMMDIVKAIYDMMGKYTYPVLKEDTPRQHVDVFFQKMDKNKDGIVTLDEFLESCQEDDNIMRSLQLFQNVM
Experimental: as §1

Kv4 α subunits = settings: in oocytes; Villarroel and Schwarz (1996); read-out: IC50 of arachidonic acid on Kv4 α subunits; cited from earlier work
Kv1.1/Kvβ1 = molecular target: T3, Kv1.1/Kvβ1 (Rattus norvegicus, UniProt P10499); test: AA modulation of Kv1.1/Kvβ1 current in Xenopus oocytes; format: cell-based; settings: Kv1.1/Kvβ1, 10 μM AA, listed as AA
T3 construct: expressed in transfected cells; host or cells: Xenopus oocytes
T3 sequence (P10499 whole entry): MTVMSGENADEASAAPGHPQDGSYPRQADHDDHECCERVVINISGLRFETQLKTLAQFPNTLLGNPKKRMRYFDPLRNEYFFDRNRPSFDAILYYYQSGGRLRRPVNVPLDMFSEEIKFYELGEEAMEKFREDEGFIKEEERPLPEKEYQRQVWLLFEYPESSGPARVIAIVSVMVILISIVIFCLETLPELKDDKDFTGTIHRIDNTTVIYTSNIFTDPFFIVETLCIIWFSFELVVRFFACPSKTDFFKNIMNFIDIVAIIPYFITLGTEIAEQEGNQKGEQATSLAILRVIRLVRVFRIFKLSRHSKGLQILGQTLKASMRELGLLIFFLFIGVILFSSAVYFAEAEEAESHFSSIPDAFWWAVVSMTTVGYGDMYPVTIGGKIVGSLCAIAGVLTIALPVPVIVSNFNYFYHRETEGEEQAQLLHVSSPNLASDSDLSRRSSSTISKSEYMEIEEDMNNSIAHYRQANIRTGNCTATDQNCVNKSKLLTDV
Experimental: Frogs underwent no more than two surgeries and surgeries were performed by well established techniques. Frogs were anesthetized with ice. Total cRNA (1-10 ng) was injected into stage IV Xenopus oocytes that were harvested the previous day. The Xenopus oocytes were incubated in ND96 containing (in mM) 96 NaCl, 2 KCl, 1.8 CaCl2, 1 MgCl2, 5 HEPES, pH 7.6, plus (Gentamycin 50 μg/ml) at 18° C. Xenopus oocytes were studied 3-7 days after injection. The two-electrode voltage-clamp recordings were performed in ND96 solution using a TURBO TEC 03 Clamp Amplifier (ALA Scientific Instruments, Westbury, N.Y.). Both electrodes were filled with 3 M KCl and had electrode resistances ranging from 0.2-1 MOhm. The current signals were filtered at 1000 Hz before transferred on a PC (Gateway, Calif.) using the PULSE software (HEKA, Germany).
In this example, the foregoing was tested by measuring two alpha/auxiliary complexes: Kv4.3/KChIP1 and Kv1.1/Kvβ1. (Kvβ1, which is one of the classic potassium channel beta subunits, dramatically changes Kv1.1 kinetics). Kv4.3/KChIP and Kv1.1/Kvβ1 were expressed respectively in Xenopus oocytes and their resulting currents were recorded in the presence or absence of […] AA. […] Kinetically, […] was much more sensitive to AA modulation than was Kv1.1/Kvβ1 (Table 4).

## CCCCC/C=C\C/C=C\C/C=C\C/C=C\CCCC(=O)O [arachidonic acid]
Kv4.2
  Peak amplitude (pA ± SEM): 336 ± 82 pA
Kv4.2; listed as AA
  Inactivation time constant (ms ± SEM): 32 ± 2 ms
Kv4.2/KChIP1
  Peak amplitude (pA ± SEM): 2827 ± 496 pA
Kv4.2/KChIP1; listed as AA
  Inactivation time constant (ms ± SEM): 37 ± 3 ms
Kv4 α subunits
  pIC50: ~5.10
Kv1.1/Kvβ1
  Inactivation time constant (ms ± SEM): 9 ± 1 ms
  Peak amplitude (μA ± SEM): 14±1 μA
